Experimental data: patent EP3693362B1, “PARASITIC PLANT GERMINATION REGULATOR” (National University Corporation Tokai National Higher …, priority 2017, dated 2019)

Columns and labels:
Format in all cases: in vivo
[1] = test system: Striga hermonthica; assay: Parasitic plant germination induction test (Striga hermonthica seeds); conditions: in the dark for 2 days; for Germination rate 0.1 nM: compound concentration 0.1 nM; for Germination rate 1 nM: compound concentration 1 nM; for Germination rate 10 nM: compound concentration 10 nM
Experimental: (§1) A parasitic plant germination induction test was conducted using the compounds synthesized in Example 1 as test compounds. The seeds of a parasitic plant (Striga hermonthica, Orobanche minor, or Phelipanche aegyptiaca) were suspended in sterilized ultrapure water, and this was dispensed in an amount of 100 µL each (containing about 20 seeds) into a 96-well plate. The test compounds or control compounds (Comparison Compound 1 or synthetic Strigolactone (GR^24: Comparison Compound 2)) dissolved in DMSO were individually added thereto to a final concentration of these compounds of 10 nM to 1 fM (1 × 10^-8 to 1 × 10^-15 M), and allowed to stand in the dark for 2 days. The presence or absence of germination was observed using a microscope, and the germination rate (i.e., number of germinated seeds/total number of seeds) was measured. The higher the germination rate in the parasitic plant germination induction test, or the higher the germination rate at lower concentration, the higher the Striga germination inducing activity.
(§2) In Tables 1 to 6, the concentrations (10 nM, 1 nM, and 0.1 nM) represent compound concentrations. In Tables 1-6, the evaluation criteria for the compounds are as follows: • ++: germination rate of 20% or more • +: germination rate of 5% or more and less than 20% • -: germination rate of less than 5% Table 1

[2] = test system: Orobanche minor; assay: Parasitic plant germination induction test (Orobanche minor seeds); conditions: in the dark for 2 days
Experimental: as §1, §2

[3] = test system: Phelipanche aegyptiaca; assay: Parasitic plant germination induction test (Phelipanche aegyptiaca seeds); conditions: in the dark for 2 days
Experimental: as §1, §2

Row | Compound | Germination rate 0.1 nM [1] | Germination rate 1 nM [1] | Germination rate 10 nM [1] | Germination rate 0.1 nM ([2]; compound concentration 0.1 nM) | Germination rate 1 nM ([2]; compound concentration 1 nM) | Germination rate 10 nM ([2]; compound concentration 10 nM) | Germination rate 1 nM ([3]; compound concentration 1 nM) | Germination rate 10 nM ([3]; compound concentration 10 nM)
1 | COc1ccc(S(=O)(=O)N2CCN(C(=O)OC3C=C(C)C(=O)O3)CC2)cc1 (stereo not shown) [Compound 2] | ++ (germination rate of 20% or more) | ++ (germination rate of 20% or more) | ++ (germination rate of 20% or more) |  |  |  |  | 
2 | CCCCCOc1ccc(S(=O)(=O)N2CCN(C(=O)OC3C=C(C)C(=O)O3)CC2)cc1 (stereo not shown) [Compound 5] | ++ (germination rate of 20% or more) | ++ (germination rate of 20% or more) | ++ (germination rate of 20% or more) |  |  |  |  | 
3 | CCc1ccc(S(=O)(=O)N2CCN(C(=O)OC3C=C(C)C(=O)O3)CC2)cc1 (stereo not shown) [Compound 6] | ++ (germination rate of 20% or more) | ++ (germination rate of 20% or more) | ++ (germination rate of 20% or more) |  |  |  |  | 
4 | CCCCCc1ccc(S(=O)(=O)N2CCN(C(=O)OC3C=C(C)C(=O)O3)CC2)cc1 (stereo not shown) [Compound 7] | ++ (germination rate of 20% or more) | ++ (germination rate of 20% or more) | ++ (germination rate of 20% or more) |  |  |  |  | 
5 | CC1=CC(OC(=O)N2CCN(S(=O)(=O)c3ccc(C(F)(F)F)cc3)CC2)OC1=O (stereo not shown) [Compound 8] | ++ (germination rate of 20% or more) | ++ (germination rate of 20% or more) | ++ (germination rate of 20% or more) |  |  |  |  | 
6 | CC1=CC(OC(=O)N2CCN(S(=O)(=O)c3cccc(Br)c3)CC2)OC1=O (stereo not shown) [Compound 9] | ++ (germination rate of 20% or more) | ++ (germination rate of 20% or more) | ++ (germination rate of 20% or more) |  |  |  |  | 
7 | COc1ccc(S(=O)(=O)N2CCN(C(=O)OC3C=CC(=O)O3)CC2)cc1 (stereo not shown) [Compound 10] | - (germination rate of less than 5%) | ++ (germination rate of 20% or more) | ++ (germination rate of 20% or more) |  |  |  |  | 
8 | CCOc1ccc(S(=O)(=O)N2CCN(C(=O)OC3C=CC(=O)O3)CC2)cc1 (stereo not shown) [Compound 11] | + (germination rate of 5% or more and less than 20%) | ++ (germination rate of 20% or more) | ++ (germination rate of 20% or more) |  |  |  |  | 
9 | CCCOc1ccc(S(=O)(=O)N2CCN(C(=O)OC3C=CC(=O)O3)CC2)cc1 (stereo not shown) [Compound 12] | + (germination rate of 5% or more and less than 20%) | ++ (germination rate of 20% or more) | ++ (germination rate of 20% or more) |  |  |  |  | 
10 | CCCCCOc1ccc(S(=O)(=O)N2CCN(C(=O)OC3C=CC(=O)O3)CC2)cc1 (stereo not shown) [Compound 14] | - (germination rate of less than 5%) | ++ (germination rate of 20% or more) | ++ (germination rate of 20% or more) |  |  |  |  | 
11 | Cc1ccc(S(=O)(=O)N2CCN(C(=O)OC3C=CC(=O)O3)CC2)cc1 (stereo not shown) [Compound 15] | - (germination rate of less than 5%) | + (germination rate of 5% or more and less than 20%) | ++ (germination rate of 20% or more) |  |  |  |  | 
12 | CCc1ccc(S(=O)(=O)N2CCN(C(=O)OC3C=CC(=O)O3)CC2)cc1 (stereo not shown) [Compound 16] |  | ++ (germination rate of 20% or more) | ++ (germination rate of 20% or more) |  |  |  |  | 
13 | CCCCCc1ccc(S(=O)(=O)N2CCN(C(=O)OC3C=CC(=O)O3)CC2)cc1 (stereo not shown) [Compound 17] | + (germination rate of 5% or more and less than 20%) | + (germination rate of 5% or more and less than 20%) | ++ (germination rate of 20% or more) |  |  |  |  | 
14 | O=C1C=CC(OC(=O)N2CCN(S(=O)(=O)c3ccc(C(F)(F)F)cc3)CC2)O1 (stereo not shown) [Compound 18] | - (germination rate of less than 5%) | + (germination rate of 5% or more and less than 20%) | ++ (germination rate of 20% or more) |  |  |  |  | 
15 | O=C1C=CC(OC(=O)N2CCN(S(=O)(=O)c3cccc(Br)c3)CC2)O1 (stereo not shown) [Compound 19] | - (germination rate of less than 5%) | ++ (germination rate of 20% or more) | ++ (germination rate of 20% or more) |  |  |  |  | 
16 | O=C1C=CC(OC(=O)N2CCN(S(=O)(=O)c3ccc([N+](=O)[O-])cc3)CC2)O1 (stereo not shown) [Compound 20] | - (germination rate of less than 5%) | ++ (germination rate of 20% or more) | ++ (germination rate of 20% or more) |  |  |  |  | 
17 | CC(C)(C)c1ccccc1OCC1CN(C(=O)OC2C=CC(=O)O2)CCO1 (stereo not shown) [Reference Compound 30] | - (germination rate of less than 5%) | ++ (germination rate of 20% or more) | ++ (germination rate of 20% or more) |  |  |  |  | 
18 | GR^24 [Comparison Compound 2, reference compound] | - (germination rate of less than 5%) | ++ (germination rate of 20% or more) | ++ (germination rate of 20% or more) | - (germination rate of less than 5%) | + (germination rate of 5% or more and less than 20%) | ++ (germination rate of 20% or more) | - (germination rate of less than 5%) | ++ (germination rate of 20% or more)
